≈ marks a conversion by molar mass, not a printed value. Calls of active or inactive are those of the source. The calls are words filed in the database; no cut-off is given here.
What was measured:
Pseudomonas aeruginosa [1] = assay: Antibacterial activity against Pseudomonas aeruginosa ATCC 27853 measured by Muller-Hinton broth based microdilution assay; assay type: functional
[2] = Hemolytic activity in human RBC measured after 1 hr; assay type: toxicity, cell-based, Erythrocyte; details: human red blood cells (erythrocytes)
Staphylococcus aureus [3] = assay: Antibacterial activity against Staphylococcus aureus assessed as reduction in metabolic activity at 1 to 8 times MIC measured after 6 hrs by Alamar blue assay; assay type: functional, organism-based
L929 = assay: Cytotoxicity against mouse L929 cells assessed as effect on cell growth at 0.25 to 0.5 ug/ml incubated for 24 hrs by MTT assay; assay type: toxicity, cell-based; details: l929, 24 h, dose 0.25-0.5 µg/ml
Klebsiella pneumoniae = assay: Antibacterial activity against Klebsiella pneumoniae measured by Muller-Hinton broth based microdilution assay; assay type: functional
Staphylococcus aureus [4] = assay: Disruption of membrane integrity in Staphylococcus aureus assessed as increase in protein leakage by measuring increase in absorbance 1 to 8 times MIC measured for 6 hrs by Bradford assay; assay type: functional, organism-based
Staphylococcus aureus [5] = assay: Antibacterial activity against Staphylococcus aureus measured after 16 passages by resistance development assay; assay type: functional, organism-based
Staphylococcus aureus [6] = assay: Antibiofilm activity in Staphylococcus aureus at 1 to 8 times MIC measured by Alamar blue assay; assay type: functional, organism-based
Escherichia coli [7] = assay: Antibacterial activity against Escherichia coli measured by Muller-Hinton broth based microdilution assay; assay type: functional
Staphylococcus aureus [8] = assay: Antibacterial activity against Staphylococcus aureus ATCC 29213 measured by Muller-Hinton broth based microdilution assay; assay type: functional
Staphylococcus aureus [9] = assay: Induction of inner membrane permeabilization in Staphylococcus aureus by measuring increase in fluorescence intensity at 1 to 8 times MIC by calcein-AM/PI staining based fluorescence analysis; assay type: functional, organism-based
Escherichia coli [10] = assay: Antibacterial activity against Escherichia coli ATCC 25922 measured by Muller-Hinton broth based microdilution assay; assay type: functional
Staphylococcus aureus [11] = assay: Induction of oxidative stress in Staphylococcus aureus assessed as increase in intracellular ROS level at 1 to 8 times MIC measured after 6 hrs by DCFH-DA staining method; assay type: functional, organism-based
Staphylococcus aureus [12] = assay: Antibacterial activity against Staphylococcus aureus measured by Muller-Hinton broth based microdilution assay; assay type: functional
Staphylococcus aureus [13] = assay: Bactericidal activity against Staphylococcus aureus assessed as reduction in number of colonies at 0.5 to 2 times MIC measured within 6 hrs by time-kill assay; assay type: functional, organism-based
[14] = Hemolytic activity in human RBC assessed as hemolytic rate at 2 to 512 ug/ml and measured after 1 hr; assay type: toxicity, cell-based, Erythrocyte; details: human red blood cells (erythrocytes), at 2 to 512 µg/mL, dose 2-512 µg/ml, read-out: Activity
Staphylococcus aureus [15] = assay: Disruption of membrane integrity in Staphylococcus aureus assessed as increase in nucleic acid leakage by measuring increase in absorbance 1 to 8 times MIC measured for 6 hrs by spectrophotometry; assay type: functional, organism-based
Staphylococcus aureus [16] = assay: Antibacterial activity against Staphylococcus aureus ATCC 25923 measured by Muller-Hinton broth based microdilution assay; assay type: functional
Staphylococcus aureus [17] = assay: Inhibition of biofilm formation in Staphylococcus aureus at 1 to 8 times MIC measured after 24 hrs by crystal violet staining method; assay type: functional, organism-based
Staphylococcus aureus [18] = assay: Disruption of membrane integrity in Staphylococcus aureus at 8 times MIC by calcein-AM/PI staining based fluorescence analysis; assay type: functional, organism-based
Staphylococcus aureus [19] = assay: Antibacterial activity against methicillin-resistant Staphylococcus aureus N315 measured by Muller-Hinton broth based microdilution assay; assay type: functional
Pseudomonas aeruginosa [20] = assay: Antibacterial activity against Pseudomonas aeruginosa measured by Muller-Hinton broth based microdilution assay; assay type: functional
[21] = Selectivity ratio of HC50 for hemolytic activity in human RBC to MIC for antibacterial activity against Staphylococcus aureus; assay type: toxicity; details: human red blood cells (erythrocytes)
Enterococcus faecalis = assay: Antibacterial activity against Enterococcus faecalis measured by Muller-Hinton broth based microdilution assay; assay type: functional
Staphylococcus aureus [22] = assay: Induction of membrane depolarization in Staphylococcus aureus at 0.5 to 2 times MIC measured upto 1 hr by DiSC35 dye-based fluorescence assay; assay type: functional, organism-based
Staphylococcus aureus [23] = assay: Antibacterial activity against Staphylococcus aureus assessed as reduction in LDH activity at 1 to 8 times MIC measured after 6 hrs by microplate reader method; assay type: functional; set-up: scale not given: the % may be the effect or the level left
Staphylococcus aureus [24] = assay: Inhibition of bacterial growth of Staphylococcus aureus at 1 to 2 times MIC; assay type: functional
Staphylococcus aureus [25] = assay: Induction of oxidative stress in Staphylococcus aureus assessed as decrease in GSH activity at 1 to 8 times MIC measured after 6 hrs by Ellman's assay; assay type: functional, organism-based
Acinetobacter baumannii = assay: Antibacterial activity against Acinetobacter baumannii measured by Muller-Hinton broth based microdilution assay; assay type: functional

Structure (SMILES) | MIC (Pseudomonas aeruginosa [1]) [µg/mL] | MIC (Klebsiella pneumoniae) [µg/mL] | MIC (Escherichia coli [7]) [µg/mL] | MIC (Staphylococcus aureus [8]) [µg/mL] | MIC (Escherichia coli [10]) [µg/mL] | MIC (Staphylococcus aureus [12]) [µg/mL] | MIC (Staphylococcus aureus [16]) [µg/mL] | MIC (Staphylococcus aureus [19]) [µg/mL] | MIC (Pseudomonas aeruginosa [20]) [µg/mL] | MIC (Enterococcus faecalis) [µg/mL] | MIC (Acinetobacter baumannii) [µg/mL] | further results
O=C1c2cccc3c(N/N=C/c4cccc(Cl)c4)ccc(c23)C(=O)N1C(CO)CO | 2 (≈ 4.72 µM) | 8 (≈ 18.9 µM) | 64 (≈ 151 µM) | 8 (≈ 18.9 µM) | 32 (≈ 75.5 µM) | 0.25 (≈ 0.59 µM) | 32 (≈ 75.5 µM) | 64 (≈ 151 µM) | 64 (≈ 151 µM) | 64 (≈ 151 µM) | 64 (≈ 151 µM) | HC50 at 1 h [2]: > 1000 µg/mL; Activity (Staphylococcus aureus [3]): Active; Activity (L929): Non-Toxic; Activity (Staphylococcus aureus [4]): Active; Activity (Staphylococcus aureus [5]): Active; Activity (Staphylococcus aureus [6]): Active; Activity (Staphylococcus aureus [9]): Active; Activity (Staphylococcus aureus [11]): Active; Activity (Staphylococcus aureus [13]): Active; hemolysis at 1 h [14]: < 5%; Activity (Staphylococcus aureus [15]): Active; inhibition (Staphylococcus aureus [17]): Active; Activity (Staphylococcus aureus [18]): Active; selectivity ratio [21]: > 4000; Activity (Staphylococcus aureus [22]): Active; Activity (Staphylococcus aureus [23]): 70%; inhibition (Staphylococcus aureus [24]): Active; Activity (Staphylococcus aureus [25]): Active
CCOC(=O)Cn1cc(/C=N/Nc2ccc3c4c(cccc24)C(=O)N(C(CO)CO)C3=O)c2ccccc21 | 8 (≈ 15.5 µM) | 4 (≈ 7.77 µM) | 64 (≈ 124 µM) | 8 (≈ 15.5 µM) | 32 (≈ 62.2 µM) | 0.25 (≈ 0.486 µM) | 32 (≈ 62.2 µM) | 16 (≈ 31.1 µM) | 64 (≈ 124 µM) | 64 (≈ 124 µM) | 32 (≈ 62.2 µM) | HC50 at 1 h [2]: > 1000 µg/mL; Activity (Staphylococcus aureus [3]): Active; Activity (L929): Non-Toxic; Activity (Staphylococcus aureus [4]): Active; Activity (Staphylococcus aureus [5]): Active; Activity (Staphylococcus aureus [6]): Active; Activity (Staphylococcus aureus [9]): Active; Activity (Staphylococcus aureus [11]): Active; Activity (Staphylococcus aureus [13]): Active; hemolysis at 1 h [14]: < 5%; Activity (Staphylococcus aureus [15]): Active; inhibition (Staphylococcus aureus [17]): Active; Activity (Staphylococcus aureus [18]): Active; selectivity ratio [21]: > 4000; Activity (Staphylococcus aureus [22]): Active; Activity (Staphylococcus aureus [23]): 70%; inhibition (Staphylococcus aureus [24]): Active; Activity (Staphylococcus aureus [25]): Active
O=C1c2cccc3c(N/N=C/c4cc(=O)oc5cc(O)ccc45)ccc(c23)C(=O)N1C(CO)CO | 4 (≈ 8.45 µM) | 4 (≈ 8.45 µM) | 64 (≈ 135 µM) | 8 (≈ 16.9 µM) | 32 (≈ 67.6 µM) | 4 (≈ 8.45 µM) | 8 (≈ 16.9 µM) | 32 (≈ 67.6 µM) | 64 (≈ 135 µM) | 128 (≈ 270 µM) | 64 (≈ 135 µM) | –
CCCCCCCCn1cc(/C=N/Nc2ccc3c4c(cccc24)C(=O)N(C(CO)CO)C3=O)c2ccccc21 | 64 (≈ 118 µM) | 16 (≈ 29.6 µM) | 32 (≈ 59.2 µM) | 64 (≈ 118 µM) | 128 (≈ 237 µM) | 32 (≈ 59.2 µM) | 16 (≈ 29.6 µM) | 64 (≈ 118 µM) | 128 (≈ 237 µM) | 64 (≈ 118 µM) | 64 (≈ 118 µM) | –
O=C1c2cccc3c(N/N=C/c4csc5ccccc45)ccc(c23)C(=O)N1C(CO)CO | 64 (≈ 144 µM) | 32 (≈ 71.8 µM) | 32 (≈ 71.8 µM) | 128 (≈ 287 µM) | 64 (≈ 144 µM) | 64 (≈ 144 µM) | 64 (≈ 144 µM) | 64 (≈ 144 µM) | 64 (≈ 144 µM) | 64 (≈ 144 µM) | 64 (≈ 144 µM) | –
O=C1c2cccc3c(N/N=C/c4ccc(O)c(Cl)c4)ccc(c23)C(=O)N1C(CO)CO | 32 (≈ 72.8 µM) | 64 (≈ 146 µM) | 16 (≈ 36.4 µM) | 64 (≈ 146 µM) | 64 (≈ 146 µM) | 64 (≈ 146 µM) | 32 (≈ 72.8 µM) | 64 (≈ 146 µM) | 8 (≈ 18.2 µM) | 64 (≈ 146 µM) | 64 (≈ 146 µM) | –
CCCCCCCCCCn1cc(/C=N/Nc2ccc3c4c(cccc24)C(=O)N(C(CO)CO)C3=O)c2ccccc21 | 32 (≈ 56.3 µM) | 16 (≈ 28.1 µM) | 32 (≈ 56.3 µM) | 32 (≈ 56.3 µM) | 32 (≈ 56.3 µM) | 16 (≈ 28.1 µM) | 16 (≈ 28.1 µM) | 64 (≈ 113 µM) | 128 (≈ 225 µM) | 64 (≈ 113 µM) | 64 (≈ 113 µM) | –
O=C1c2cccc3c(N/N=C/c4ccco4)ccc(c23)C(=O)N1C(CO)CO | 16 (≈ 42.2 µM) | 64 (≈ 169 µM) | 32 (≈ 84.3 µM) | 32 (≈ 84.3 µM) | 64 (≈ 169 µM) | 32 (≈ 84.3 µM) | 32 (≈ 84.3 µM) | 32 (≈ 84.3 µM) | 32 (≈ 84.3 µM) | 32 (≈ 84.3 µM) | 32 (≈ 84.3 µM) | –
